Assay [1] has as its target T1, Peroxisome proliferator-activated receptor gamma (Homo sapiens, UniProt P37231).
T1 sequence (P37231 whole entry): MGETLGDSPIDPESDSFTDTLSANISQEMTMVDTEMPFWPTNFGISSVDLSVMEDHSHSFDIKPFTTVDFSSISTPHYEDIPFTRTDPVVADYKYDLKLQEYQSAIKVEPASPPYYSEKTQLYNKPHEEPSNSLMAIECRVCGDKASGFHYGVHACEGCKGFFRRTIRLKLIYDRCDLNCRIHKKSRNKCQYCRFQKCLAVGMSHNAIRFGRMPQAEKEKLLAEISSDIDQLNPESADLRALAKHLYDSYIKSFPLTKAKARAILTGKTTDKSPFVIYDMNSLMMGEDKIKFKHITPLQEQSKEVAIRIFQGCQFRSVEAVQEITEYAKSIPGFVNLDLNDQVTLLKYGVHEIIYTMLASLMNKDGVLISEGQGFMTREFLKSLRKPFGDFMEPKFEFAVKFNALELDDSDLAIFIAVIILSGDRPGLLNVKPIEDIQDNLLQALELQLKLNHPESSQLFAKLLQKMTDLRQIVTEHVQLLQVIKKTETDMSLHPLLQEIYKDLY
Description: Activity at human PPARgamma transfected in HEK293 cells assessed as transactivation activity after 24 hrs by Dual-luciferase reporter gene assay relative to rosiglitazone. The class given is cell-based. A general note: Reporter assays use an easily measured gene product as a stand-in for the process of interest.

The target of assay [2] is T1, Peroxisome proliferator-activated receptor gamma. Description: Activity at human PPARgamma transfected in HEK293 cells assessed as transactivation activity by luciferase reporter gene assay. The assay is classed as cell-based.
For assay [3], the target named is T2, Peroxisome proliferator-activated receptor gamma (Homo sapiens) (UniProt P37231).
T2 sequence (whole entry): T1 sequence (P37231 whole entry)
Description: Activity at PPARgamma (unknown origin) transfected in 293T cells assessed as transactivation activity after 24 hrs by PPRE-TK- luciferase reporter gene assay relative to rosiglitazone. The assay is classed as cell-based.

The target of assay [4] is T1, Peroxisome proliferator-activated receptor gamma. As to the kind of experiment: Activity at PPARgamma (unknown origin) assessed as transactivation activity by reporter gene assay.
Assay [5] addresses T2, Peroxisome proliferator-activated receptor gamma (Homo sapiens). Description: Activity at human full length PPARgamma transfected in COS7 cells assessed as transactivation activity by reporter gene assay relative to rosiglitazone. The settings on record: COS-7. The assay is classed as cell-based.
The target of assay [6] is T1, Peroxisome proliferator-activated receptor gamma. Description: Activity at full length human PPARgamma transfected in CV1 cells assessed as transactivation activity after 24 hrs by PPRE-TK- luciferase reporter gene assay. The assay is classed as cell-based, CV-1.
Assay [7] deals with T2, Peroxisome proliferator-activated receptor gamma (Homo sapiens). Description: Activity at full length human PPARgamma transfected in CV1 cells assessed as transactivation activity after 24 hrs by PPRE-TK- luciferase reporter gene assay relative to rosiglitazone. The class given is cell-based. The settings on record: CV-1.
For assay [8] the target is unchanged. As to the kind of experiment: Activity at PPARgamma (unknown origin) assessed as transactivation activity by reporter gene assay relative to rosiglitazone.
Assay [9] shares this target. As to the kind of experiment: Activity at human full length PPARgamma LBD transfected in COS7 cells assessed as transactivation activity by reporter gene assay relative to rosiglitazone. The assay is classed as cell-based. The settings on record: COS-7.

A word on the EC50: it is the midpoint of the concentration-response curve. Take `Cc1c(C)n(Cc2ccc(-c3ccccc3C(=O)O)cc2)c2ccc(C(=O)NCc3cccnc3)cc12`: the EC50 result in assay [1] is given as “Not Active”.

Regarding `Cc1oc(-c2ccccc2)nc1CCOc1ccc(C[C@@H](NC(=O)/C=C/c2ccco2)C(=O)O)cc1`, the 50% effective concentration (EC50) in assay [2] was found to be 155 nM.

For the compound `C[C@@H]1O[C@@H](O[C@@H]2[C@H](O[C@H]3C[C@]4(C)[C@H](C[C@@H](O)[C@@H]5[C@@](C)([C@]6(C)CC[C@H](C(C)(C)O)O6)CC[C@]54C)[C@@]4(C)CC[C@H](O)C(C)(C)[C@H]34)O[C@H](CO)[C@@H](O)[C@@H]2O)[C@H](O)[C@H](O)[C@H]1O`, the %max in assay [3] amounted to 30%.

`Cc1c(C)n(Cc2ccc(-c3ccccc3C(=O)O)cc2)c2ccc(C(=O)N[C@@H](C)c3ccc([N+](=O)[O-])cc3)cc12`: in assay [4], the 50% effective concentration (EC50) result is recorded as “Not Active”.

`CCCCCCCCCC(=O)O`: the %max in assay [5] amounted to 60%.

Turning to `CCCc1nc2c(C)cc(-c3nc4ccccc4n3C)cc2n1Cc1ccc(-c2ccccc2C(=O)O)cc1`, in [6], the half-maximal effective concentration (EC50) amounted to 4500 nM. Also, the %max in assay [7] stood at 30%.

As to `CC[C@@H](OC(=O)N(Cc1ccccc1)C(=O)Nc1cc(OC)cc(OC)c1)c1cc(-c2ccc(OC(C)(C)C(=O)O)cc2)no1`, in [8], the %max came out at 70%. The EC50 in assay [4] (read-out: EC50) was found to be 0.38 nM.

`C[C@H](CCC(=O)O)C[C@H](C)C[C@H](C)C(=O)/C=C(\O)[C@H](C)C[C@H](C)C/C=C/[C@@H](C)[C@@H](O)[C@@H](C)[C@@H](O)C[C@@H]1CC[C@@](C)([C@H]2CC[C@@](C)([C@@H](C)O)O2)O1`: the %max in assay [9] was 35%.

With `CC[C@H](OC(=O)N(Cc1ccccc1)C(=O)Nc1cc(OC)cc(OC)c1)c1cc(-c2ccc(OC(C)(C)C(=O)O)cc2)no1`, the %max in assay [8] stood at 60%. Moreover, the EC50 in assay [4] (read-out: EC50) turned out to be 183 nM.

(Values after ChEMBL document CHEMBL3585309, “Peroxisome Proliferator-Activated Receptor γ (PPARγ) and Ligand Choreography: Newcomers Take the Stage” (J Med Chem, 2015).)
